“Also recorded” adds a separate entry of the source.
Assays:
[1] = test system: cytoplasmic calcium levels in U251 cells; test: Cytoplasmic calcium imaging (Fura-2/AM); type: cell-based, human; details: for elevation of cytoplasmic calcium levels: 100 μmol/L of each drug, Fura-2/AM loaded cells
Protocol: (A) U251 cells were treated with DMC or various coxibs and NSAIDs, and changes in intracellular calcium levels were recorded as described in Materials & Methods. […] Arrows indicate timepoint of drug addition. […] Essentially similar results were also obtained with the LN229 cell line.
The cells were loaded by incubating them with […] Fura-2/AM (Invitrogen) for 30 min at room temperature in external solution containing 138 mmol/L NaCl, 5.6 mmol/L KCl, 1.2 mmol/L MgCl2, 2.6 mmol/L CaCl2, 10 mmol/L HEPES, and 4 mmol/L glucose (pH 7.4). After loading, the cells were rinsed and transferred to the imaging setup. The cells were treated with individual drugs for 10 s, whereas fluorescence was elicited with the excitation wavelength alternating between 350 and 380 nm, using a Polychromator V (TILL Photonics GmbH, Grafelfing, Germany) to provide illumination via a Zeiss Axiovert 100 microscope with a Zeiss Fluar 40 oil objective (Carl Zeiss, Jena, Germany). Images were captured using a Cascade 512B CCD camera (Photometrics, Tucson, Ariz.) controlled with MetaFluor software (Molecular Devices, Sunnyvale, Calif.) at 0.5 Hz acquisition frequency. Ratios of the images obtained at 350 and 380 nm excitation were used to show changes in the cytoplasmic calcium concentration, according to the principles developed by Grynkiewicz et al. (31).

[2] = test system: CHOP, GRP78, caspase 4 in U251 glioblastoma cells; test: Western blot of ER stress indicators in U251 cells; type: cell-based, human; details: for CHOP expression, time kinetics: U251, 50 μmol/L, 4 h up to 24 h
Protocol: U251 glioblastoma cells were cultured in the presence of 1 μM thapsigargin (Tg) or 60 μM DMC for various times, as indicated. Total cell lysates were prepared and analyzed by Western blot with specific antibodies to the ER stress proteins GRP78, CHOP, and caspase 4 (Casp 4). Actin was used as a loading control.
Shown are (A) time kinetics at 50 μM of each drug, and (B) concentration dependence after 15 hours of incubation.
Shown are (FIG. 7A) time kinetics at 50 μM of each drug, and (FIG. 7B), concentration dependence after 15 hours of incubation.
U251 glioblastoma cells were cultured for 24 hours in the presence of increasing concentrations of (A) bortezomib (BZM) or (B) DMC. Total cell lysates were analyzed by Western blot with specific antibodies to ubiquitin, GRP78, CHOP, and caspase 4. Actin was used as a loading control.
Total cell lysates were prepared by lysis of cells with radioimmunoprecipitation assay buffer (28), and protein concentrations were determined using the bicinchoninic acid protein assay reagent (Pierce, Rockford, Ill.). For Western blot analysis, 50 Ag of each sample were processed as described (29). The primary antibodies were purchased from Cell Signaling Technologies (Beverly, Mass.), Cayman Chemical (Ann Arbor, Mich.), or Santa Cruz Biotechnology, Inc. (Santa Cruz, Calif.) and used according to the manufacturer's recommendations. The secondary antibodies were coupled to horseradish peroxidase and detected by chemiluminescence using the SuperSignal West substrate from Pierce. All immunoblots were repeated at least once to confirm the results.
Total cell lysates were prepared and analyzed by Western blot analysis as described earlier (19). Immunohistochemical analysis of protein expression in tumor tissues was performed with the use of the Vectastain avidin-biotin complex method kit (Vector Laboratories) as described previously (32). The primary antibodies were purchased from Cell Signaling Technology or Santa Cruz Biotechnology, Inc. and used according to the manufacturers' recommendations. All immunoblots and stainings were repeated at least once to confirm the results.

[3] = test system: CHOP protein in U87 glioblastoma tumor tissue; details: shown previously (ref. 39); cited from earlier work
[4] = test system: U87 glioblastoma tumors; test: TUNEL assay of xenograft tumor tissue
[5] = test system: CHOP, GRP78, caspase 4 in U251 glioblastoma cells; test: Western blot of ER stress indicators in U251 cells; type: cell-based, human; details: U251, 30 and 50 μmol/L, 48 hours
[6] = target: T1, purified COX-2 protein (Homo sapiens, UniProt P35354); test: COX-2 inhibition in vitro with purified COX-2 protein; type: biochemical
T1 sequence (P35354 18-604): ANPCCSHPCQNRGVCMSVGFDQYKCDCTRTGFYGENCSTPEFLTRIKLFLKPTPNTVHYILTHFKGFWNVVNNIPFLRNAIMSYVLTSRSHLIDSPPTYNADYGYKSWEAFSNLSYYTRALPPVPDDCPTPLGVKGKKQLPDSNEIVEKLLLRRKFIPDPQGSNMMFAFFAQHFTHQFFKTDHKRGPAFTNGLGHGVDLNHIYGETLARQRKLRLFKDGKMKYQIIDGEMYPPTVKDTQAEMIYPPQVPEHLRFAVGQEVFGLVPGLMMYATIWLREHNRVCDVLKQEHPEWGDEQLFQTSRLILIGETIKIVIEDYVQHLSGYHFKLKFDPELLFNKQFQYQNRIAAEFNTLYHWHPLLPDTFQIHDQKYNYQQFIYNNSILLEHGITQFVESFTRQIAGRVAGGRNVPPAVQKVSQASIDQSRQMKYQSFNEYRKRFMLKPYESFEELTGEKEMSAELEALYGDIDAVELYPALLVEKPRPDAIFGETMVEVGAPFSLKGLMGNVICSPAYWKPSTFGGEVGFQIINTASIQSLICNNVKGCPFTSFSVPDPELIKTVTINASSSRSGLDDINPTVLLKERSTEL
Protocol: Bortezomib was obtained from the pharmacy as 3.5 mg Velcade suspended in 3.5 mL saline (Millennium Pharmaceuticals).

| Structure (SMILES) | elevation of cytoplasmic calcium levels [1] | CHOP expression, time kinetics [2] | average maximum calcium peak compared with celecoxib ([1]; 100 μmol/L, difference not statistically significant) | dosage at which ER stress in tumor tissue in vivo begins to appear [3] | TUNEL staining of tumor tissue ([4]; U87MG xenograft, 1 mg/kg BZM and 7.5 mg/kg DMC individually or in combination, 50 h) | apoptosis in the tumor tissue ([4]; U87 xenograft, short-term drug treatment) | stimulation of the ESR (CHOP, GRP78, caspase-4 cleavage) [5] | COX-2-inhibitory activity [6] | increase in CHOP or GRP78 protein, concentration dependence ([2]; U251, 15 hours, concentrations up to 75 or 100 μmol/L) | expression of GRP78 and CHOP ([2]; U251, increasing concentrations, 24 hours) | time at which activation (cleavage) of caspase-4 was first noted ([2]; U251, 1 μM thapsigargin or 60 μM DMC) | CHOP and GRP78 expression levels ([2]; U251, 1 μM thapsigargin or 60 μM DMC, prominent increase at 6 h and thereafter) |
| --- | --- | --- | --- | --- | --- | --- | --- | --- | --- | --- | --- | --- |
| Cc1ccc(-c2cc(C(F)(F)F)nn2-c2ccc(S(N)(=O)=O)cc2)cc1 [celecoxib, 4-[5-(4-methylphenyl)-3-(trifluoromethyl)-1H-pyrazol-1-yl]benzenesulfonamide] | pronounced calcium spike | noticeable lower compared with DMC | – | – | – | – | – | – | – | – | – | – |
| Cc1ccc(C)c(-c2cc(C(F)(F)F)nn2-c2ccc(S(N)(=O)=O)cc2)c1 [DMC, 4-[5-(2,5-dimethylphenyl)-3-(trifluoromethyl)-1H-pyrazol-1-yl]benzenesulfonamide] | pronounced calcium spike | pronounced induction of CHOP | somewhat greater | > 10 mg/kg | nor did it substantially increase TUNEL staining | significantly increased apoptosis | potently stimulated the ESR | lacks the ability to inhibit COX-2; also recorded: lack thereof | potently induced | strong induction of GRP78 and CHOP | ~24 h | substantially elevated |

— patent US9486461B2, “Methods and compositions for inducing apoptosis by stimulating ER stress” (UNIVERSITY OF SOUTHERN CALIFORNIA, priority 2007, dated 2016)
